Assay results reported in paper PMC9604066 (International Journal of Molecular Sciences, 2022).
In brackets after ≈: the same amount, converted by molar mass.

Columns and labels:
[1] = tested on: 17D vaccine strain of YFV; details: cited from earlier work
[2] = tested on: YFV strain 17D (Stamaril) on Huh-7 cells; assay: microbe, parasite or virus in culture; type: cell-based, yellow fever virus; details: for EC50: Yellow fever virus, Huh-7
[3] = physchem
[4] = in vitro; details: human
[5] = tested on: yellow fever; details: rhesus monkey, in vivo; cited from earlier work

| Structure (SMILES) | EC50 [2] | logP [3] | other results |
| --- | --- | --- | --- |
| C[C@@]1(O)[C@H](O)[C@@H](CO)O[C@H]1n1ccc(N)nc1=O [2-C-methylcytidine] |  |  | EC90 [1]: 0.32 µg/mL (≈ 1.24 µM); SI [1]: 141 |
| CN1CC(=O)N(c2ccccc2)C1c1cc2cc(Cc3ccc4oc(C5N(C)CC(=O)N5c5ccccc5)cc4c3)ccc2o1 (stereo not drawn) [2a, (2″R,2‴R)-, (2″S,2‴S)-, and meso-(2″R,2‴S)-5,5′-Methylenebis[2-(N-methyl-3″-phenyl-4″-oxo-1″,3″-imidazolidin-2″-yl)benzofuran]] | > 133 µM | 4.75 |  |
| Cc1ccc(N2C(=O)CN(C)C2c2cc3cc(Cc4ccc5oc(C6N(C)CC(=O)N6c6ccc(C)cc6)cc5c4)ccc3o2)cc1 (stereo not drawn) [2b, (2″R,2‴R)-, (2″S,2‴S)-, and meso-(2″R,2‴S)-5,5′-Methylenebis(2-[N-methyl-3″-(4-methylphenyl)-4″-oxo-1″,3″-imidazolidin-2″-yl]benzofuran)] | > 160 µM |  |  |
| Cc1cccc(N2C(=O)CN(C)C2c2cc3cc(Cc4ccc5oc(C6N(C)CC(=O)N6c6cccc(C)c6C)cc5c4)ccc3o2)c1C (stereo not drawn) [2c, (2″R,2‴R)-, (2″S,2‴S)-, and meso-(2″R,2‴S)-5,5′-Methylenebis(2-[N-methyl-3″-(2,3-dimethylphenyl)-4″-oxo-1″,3″-imidazolidin-2″-yl]benzofuran)] | 6.75 µM | 3.77 | CC50 [4]: 41 µM |
| Cc1ccc(C)c(N2C(=O)CN(C)C2c2cc3cc(Cc4ccc5oc(C6N(C)CC(=O)N6c6cc(C)ccc6C)cc5c4)ccc3o2)c1 (stereo not drawn) [2d, (2″R,2‴R)-, (2″S,2‴S)-, and meso-(2″R,2‴S)-5,5′-Methylenebis(2-[N-methyl-3″-(2,5-dimethylphenyl)-4″-oxo-1″,3″-imidazolidin-2″-yl]benzofuran)] | 7.7 µM | 4.38 | SI [2]: 2.40; CC50 [4]: 18.5 µM |
| Cc1cc(C)cc(N2C(=O)CN(C)C2c2cc3cc(Cc4ccc5oc(C6N(C)CC(=O)N6c6cc(C)cc(C)c6)cc5c4)ccc3o2)c1 (stereo not drawn) [2e, (2″R,2‴R)-, (2″S,2‴S)-, and meso-(2″R,2‴S)-5,5′-Methylenebis[2-(N-methyl-3″-(3,5-dimethylphenyl)-4″-oxo-1″,3″-imidazolidin-2″-yl)benzofuran]] | 3.54 µM | 4.15 | CC50 [4]: 54.1 µM |
| COc1ccc(N2C(=O)CN(C)C2c2cc3cc(Cc4ccc5oc(C6N(C)CC(=O)N6c6ccc(OC)cc6)cc5c4)ccc3o2)cc1 (stereo not drawn) [2g, (2″R,2‴R)-, (2″S,2‴S)-, and meso-(2″R,2‴S)-5,5′-Methylenebis(2-[N-methyl-3″-(4-methoxyphenyl)-4″-oxo-1″,3″-imidazolidin-2″-yl]benzofuran)] | > 152 µM | 4.25 |  |
| CN1CC(=O)N(c2ccc(F)cc2)C1c1cc2cc(Cc3ccc4oc(C5N(C)CC(=O)N5c5ccc(F)cc5)cc4c3)ccc2o1 (stereo not drawn) [2h, (2″R,2‴R)-, (2″S,2‴S)-, and meso-(2″R,2‴S)-5,5′-Methylenebi(2-[N-methyl-3″-(4-fluorophenyl)-4″-oxo-1″,3″-imidazolidin-2″-yl]benzofuran)] | 23.5 µM | 4.6 | SI [2]: 1.63; CC50 [4]: 38.5 µM |
| CN1CC(=O)N(c2ccc(Cl)cc2)C1c1cc2cc(Cc3ccc4oc(C5N(C)CC(=O)N5c5ccc(Cl)cc5)cc4c3)ccc2o1 (stereo not drawn) [2i, (2″R,2‴R)-, (2″S,2‴S)-, and meso-(2″R,2‴S)-5,5′-Methylenebis(2-[N-methyl-3″-(4-chlorophenyl)-4″-oxo-1″,3″-imidazolidin-2″-yl]benzofuran)] | 14.4 µM |  | SI [2]: 0.85; CC50 [4]: 12.3 µM |
| CN1CC(=O)N(c2ccc(Br)cc2)C1c1cc2cc(Cc3ccc4oc(C5N(C)CC(=O)N5c5ccc(Br)cc5)cc4c3)ccc2o1 (stereo not drawn) [2j, (2″R,2‴R)-, (2″S,2‴S)-, and meso-(2″R,2‴S)-5,5′-Methylenebis(2-[N-methyl-3″-(4-bromophenyl)-4″-oxo-1″,3″-imidazolidin-2″-yl]benzofuran)] | > 133 µM |  |  |
| CN1CC(=O)N(c2cccc(C(F)(F)F)c2)C1c1cc2cc(Cc3ccc4oc(C5N(C)CC(=O)N5c5cccc(C(F)(F)F)c5)cc4c3)ccc2o1 (stereo not drawn) [2k, (2″R,2‴R)-, (2″S,2‴S)-, and meso-(2″R,2‴S)-5,5′-Methylenebis(2-[N-methyl-3″-(3-trifluoromethyl)phenyl-4″-oxo-1″,3″-imidazolidin-2″-yl]benzofuran)] | 8.89 µM | 5.16 | CC50 [4]: 75 µM |
| c1ccc(Cn2c(-c3cc4cc(Cc5ccc6oc(-c7nc8ccccc8n7Cc7ccccc7)cc6c5)ccc4o3)nc3ccccc32)cc1 [3a, 5,5′-Methylenebis[2-(1-benzylbenzimidazol-2-yl)benzofuran]] | > 114 µM |  |  |
| Cc1ccc(Cn2c(-c3cc4cc(Cc5ccc6oc(-c7nc8ccccc8n7Cc7ccc(C)cc7)cc6c5)ccc4o3)nc3ccccc32)cc1 [3b, 5,5′-Methylenebis(2-[1-(p-methylbenzyl)benzimidazol-2-yl]benzofuran)] | > 145 µM |  |  |
| COc1cccc(Cn2c(-c3cc4cc(Cc5ccc6oc(-c7nc8ccccc8n7Cc7cccc(OC)c7)cc6c5)ccc4o3)nc3ccccc32)c1 [3c, 5,5′-Methylenebis(2-[1-(m-methoxybenzyl)benzimidazol-2-yl]benzofuran)] | > 139 µM |  |  |
| COc1ccc(Cn2c(-c3cc4cc(Cc5ccc6oc(-c7nc8ccccc8n7Cc7ccc(OC)cc7)cc6c5)ccc4o3)nc3ccccc32)cc1 [3d, 5,5′-Methylenebis(2-[1-(p-methoxybenzyl)benzimidazol-2-yl]benzofuran)] | 27.7 µM |  |  |
| Fc1ccccc1Cn1c(-c2cc3cc(Cc4ccc5oc(-c6nc7ccccc7n6Cc6ccccc6F)cc5c4)ccc3o2)nc2ccccc21 [3e, 5,5′-Methylenebis(2-[1-(o-fluorobenzyl)benzimidazol-2-yl]benzofuran)] | > 21.5 µM | 4.65 |  |
| Fc1ccc(Cn2c(-c3cc4cc(Cc5ccc6oc(-c7nc8ccccc8n7Cc7ccc(F)cc7)cc6c5)ccc4o3)nc3ccccc32)cc1 [3f, 5,5′-Methylenebis(2-[1-(p-fluorobenzyl)benzimidazol-2-yl]benzofuran)] | 28.7 µM |  |  |
| Clc1ccccc1Cn1c(-c2cc3cc(Cc4ccc5oc(-c6nc7ccccc7n6Cc6ccccc6Cl)cc5c4)ccc3o2)nc2ccccc21 [3g, 5,5′-Methylenebis(2-[1-(o-chlorobenzyl)benzimidazol-2-yl]benzofuran)] | > 137 µM |  |  |
| Clc1ccc(Cn2c(-c3cc4cc(Cc5ccc6oc(-c7nc8ccccc8n7Cc7ccc(Cl)cc7)cc6c5)ccc4o3)nc3ccccc32)cc1 [3h, 5,5′-Methylenebis(2-[1-(p-chlorobenzyl)benzimidazol-2-yl]benzofuran)] | > 103 µM |  |  |
| Brc1cccc(Cn2c(-c3cc4cc(Cc5ccc6oc(-c7nc8ccccc8n7Cc7cccc(Br)c7)cc6c5)ccc4o3)nc3ccccc32)c1 [3i, 5,5′-Methylenebis(2-[1-(m-bromobenzyl)benzimidazol-2-yl]benzofuran)] | 91.6 µM |  |  |
| CC(C)n1c(-c2cc3cc(Cc4ccc5oc(-c6nc7ccccc7n6C(C)C)cc5c4)ccc3o2)nc2ccccc21 [3j, 5,5′-Methylenebis[2-(1-isopropylbenzimidazol-2-yl)benzofuran]] | 6.14 µM | 3.71 | CC50 [4]: 69.3 µM |
| c1ccc2c(c1)nc(-c1cc3cc(Cc4ccc5oc(-c6nc7ccccc7n6C6CCCC6)cc5c4)ccc3o1)n2C1CCCC1 [3k, 5,5′-Methylenebis[2-(1-cyclopentylbenzimidazol-2-yl)benzofuran]] | > 162 µM |  |  |
| c1ccc2c(c1)nc(-c1cc3cc(Cc4ccc5oc(-c6nc7ccccc7n6C6CCCCC6)cc5c4)ccc3o1)n2C1CCCCC1 [3l, 5,5′-Methylenebis[2-(1-cyclohexylbenzimidazol-2-yl)benzofuran]] | > 28.7 µM |  |  |
| NC(=O)c1ncn([C@@H]2O[C@H](CO)[C@@H](O)[C@H]2O)n1 [Ribavirin] |  |  | survival [5]: lack of improved survival |
| O=Cc1cc2cc(Cc3ccc4oc(C=O)cc4c3)ccc2o1 [compound 7] | > 329 µM | 3.75 | activity towards YFV [2]: did not exhibit any activity |
| CCOC(=O)c1cc2cc(Cc3ccc4oc(C(=O)OCC)cc4c3)ccc2o1 [compound 10] | > 255 µM |  | activity towards YFV [2]: did not exhibit any activity |
| O=C(O)c1cc2cc(Cc3ccc4oc(C(=O)O)cc4c3)ccc2o1 [compound 11] | > 297 µM |  | activity towards YFV [2]: did not exhibit any activity |
